The record followed here is PubChem BioAssay AID463094 (The Scripps Research Institute Molecular Screening Center, 2010).

Molecules are shown by their SMILES. Active and inactive are the calls of the source.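 Rule for the calls: active = inhibition at or above 90%; inactive = inhibition below 90%.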

The target in this assay is Glutathione S-transferase omega-1 (Homo sapiens) (UniProt P78417). Put plainly: cellular GSTO1 activity blockade by competitive ABPP – cell-based, MDA-MB-435, in-gel fluorescence, late-stage follow-up (AID 463094). The note with it: MDA-MB-435 in situ, 1 h, at 1 µM, active compounds read high.
Glutathione S-transferase omega-1 (Homo sapiens), sequence (P78417 whole entry, looked up): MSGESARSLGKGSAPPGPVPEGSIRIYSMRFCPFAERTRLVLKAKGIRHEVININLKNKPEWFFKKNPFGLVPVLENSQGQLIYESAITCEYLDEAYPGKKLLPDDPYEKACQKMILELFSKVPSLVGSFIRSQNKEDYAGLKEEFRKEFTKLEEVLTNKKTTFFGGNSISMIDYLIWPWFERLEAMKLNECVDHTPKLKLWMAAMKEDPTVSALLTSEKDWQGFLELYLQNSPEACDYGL
On to `O=C(NC1CCCCC1)C(c1cccnc1)N(C(=O)CCl)c1cccc(Cl)c1` (stereo not given), for which the inhibition – broadly, the share of the control response that was lost under treatment – is 100%.

For the compound `C#CCNC(=O)C(c1ccc(OC)cc1)N(C(=O)CCl)c1ccc(Cl)cc1` (stereo not given), the inhibition is 30% (inactive).

On to `O=S(=O)(c1ccc(Cl)cc1)N1CCC2(CC1)CO2`, for which the inhibition is 17% (inactive).

In the case of `COc1ccc(C(C(=O)NC2CCCCC2)N(C(=O)CCl)c2cccc(Cl)c2)cc1` (stereo not given), the inhibition is 100%.

With `C#CCNC(=O)C(c1ccc(OC)cc1)N(C(=O)CCl)c1cccc(Cl)c1` (stereo not given), the inhibition is 77% (inactive).

With `C#CCCC(=O)NCCCN(C(=O)CCl)c1ccc([N+](=O)[O-])cc1`, the inhibition is 97%.

For `CCOC(=O)c1sc(N(Cc2ccccc2)C(=O)CCl)nc1C`, the inhibition is 65% (inactive).

For the compound `COc1ccc(N(C(=O)CCl)C(C(=O)NCCc2ccccc2)c2cccs2)cc1Cl` (stereo not given), the inhibition is 95%.

`C#CCCCCNC(=O)C(c1cccnc1)N(C(=O)CCl)c1ccc(F)cc1` (stereo not given): the inhibition was 95%.

For `O=C(NC1CCCCC1)C(c1cccnc1)N(C(=O)CCl)c1ccc(F)cc1` (stereo not given), the inhibition is 100%.

On to `COc1ccc(N(C(=O)CCl)C(C(=O)NC2CCCCC2)c2cccnc2)cc1` (stereo not given), for which the inhibition is 95%.

For the compound `Cc1cccc(CN2CCN(C(=O)CCl)CC2)c1`, the inhibition is 53% (inactive).

Turning to `C#CCN(CCCN(C(=O)CCl)c1ccc([N+](=O)[O-])cc1)C(=O)C(F)(F)F`, the inhibition was 100%.

`C#CCCCCNC(=O)C(c1ccc(OC)cc1)N(C(=O)CCl)c1cccc(Cl)c1` (stereo not given): the inhibition was 90%.

As for `COc1ccc(C(C(=O)NC2CCCCC2)N(C(=O)CCl)c2ccc(Cl)cc2)cc1` (stereo not given), the inhibition is 60% (inactive).
